From ChEMBL document CHEMBL5512627, “Small-molecule agents for treating skin diseases” (Eur J Med Chem, 2024)
pEC50, pIC50: −log10 of the molar value.

How the values were obtained:
[1] = molecular target: T1, 3-oxo-5-alpha-steroid 4-dehydrogenase 1 (Homo sapiens, UniProt P18405); test: Inhibition of human steroid 5-alpha-reductase 1
T1 sequence (P18405 whole entry): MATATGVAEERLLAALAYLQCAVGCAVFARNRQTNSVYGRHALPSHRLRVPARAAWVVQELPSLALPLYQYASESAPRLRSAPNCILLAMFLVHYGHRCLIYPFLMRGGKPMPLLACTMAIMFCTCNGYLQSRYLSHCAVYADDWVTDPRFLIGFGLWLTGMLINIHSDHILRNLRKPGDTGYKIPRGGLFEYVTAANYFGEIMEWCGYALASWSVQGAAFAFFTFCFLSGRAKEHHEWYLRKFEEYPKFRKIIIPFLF

[2] = Inhibition of lipid synthesis in androgen stimulated Hamster flank gland; assay type: functional, Mesocricetus auratus
[3] = Upregulation of NE suppressed c-Kit expression in human epidermal melanocyte; assay type: functional, cell-based
Mus musculus [4] = species: Mus musculus; test: Anti-inflammatory activity in imiquimod-induced C57BL/6 mouse psoriasis model assessed as reduction in epidermal thickness at 200 uL relative to control; assay type: functional; parameters: scale not given: the % may be the effect or the level left
Mus musculus [5] = species: Mus musculus; test: Anti-inflammatory activity in imiquimod-induced BALB/c mouse psoriasis model assessed as reduction in skin inflammation; assay type: functional, organism-based

**Q.** With `CC1=C2CCc3cc(/C=C/c4ccccc4)ccc3N2CCC1=O` as the molecule, how does the pIC50 [1] read?
**A.** 7.85

**Q.** Which “inhibition (INH)” value [2] does the source give for `C[C@]12C=CC(=O)C=C1CC[C@@H]1[C@@H]2C(=O)C[C@@]2(C)[C@H]1CC[C@]2(Cl)S(=O)(=O)Cc1ccccc1` here?
**A.** 70%

**Q.** With `COC(=O)C1=CO[C@@H](O[C@@H]2O[C@H](CO)[C@@H](O)[C@H](O)[C@H]2O)[C@@H]2C(CO)=CC[C@H]12` [GENIPOSIDE] as the molecule, how does the pEC50 [3] read?
**A.** 5.78

**Q.** With `CCc1ccc(N(CC(C)C)S(=O)(=O)c2ccc(OCC3CCOCC3)c(CO)c2)cc1` [GSK2981278] as the molecule, how does the Activity (Mus musculus [4]) read?
**A.** 23%

**Q.** With `CN1C(=O)[C@@H](NC(=O)c2n[nH]c(Cc3ccccc3)n2)COc2ccccc21` [GSK2982772] as the molecule, how does the pEC50 (Mus musculus [5]) read?
**A.** 8.40
